Reference: patent US20250074908A1, “SALT OF ROCK INHIBITOR, CRYSTAL FORM OF SALT, COMPOSITION, AND PHARMACEUTICAL USE” (WUHAN CREATERNA SCIENCE AND TECHNOLOGY CO., LTD., priority 2022, published 2025)
≈ marks a conversion by molar mass, not a printed value.

What was measured:
[1] = Chemical stability on storage up to 3 months (HPLC purity), Table 13-4; type: physicochemical; conditions: for stability in chemical properties: 40° C./75% humidity (sealed and protected from light); for Purity (%), 230 nm, Day 13: 40° C./75% humidity, sealed and protected from light
Description: B) The HPLC method used for the stability study was as follows:
The vials were sealed with tin foil and then separately placed under the conditions of 40° C. temperature/75% humidity or 25° C. temperature/60% humidity for about 3 months. The samples after being placed for 0 months, 2 weeks, 1 month and 3 months were taken and each dissolved in a diluent to prepare a solution at about 1.0 mg/mL, which was then tested for chemical stability by HPLC analysis using Shimadzu LC-20ADxr.

[2] = Hygroscopicity test (dynamic vapor sorption, DVS); type: physicochemical; conditions: for weight gain (DVS): 25° C.; for hygroscopicity: DVS
Description: The instrument used for dynamic vapor sorption analysis was Vsorp (ProUmid GmbH & Co. KG, Germany). Each sample was subjected to vapor sorption/desorption tests using the Vsorp vapor sorption analyzer (ProUmid GmbH & Co. KG, Germany). The sample was placed in a tared sample tray, and the change in the sample mass with humidity (0-90% RH) at 25° C. was recorded.

[3] = Solubility in biological media and purified water at 37° C. (tartrate, ethanesulfonate, 2-hydroxyethanesulfonate, sulfate); type: physicochemical
Description: (§1) A) The HPLC method used for the solubility test was as follows:
The centrifuge tubes were shaken on a constant temperature incubator shaker (at a temperature of 37° C., with a shaking frequency of 100 times/min).

[4] = Solid-state stability test (HPLC purity and XRPD), Table 13-3; type: physicochemical
Description: B) The HPLC method used for the stability test was as follows:
The samples after being placed for 0 days, 1 week, 2 weeks and 30 days were taken and each dissolved in a diluent to prepare a solution at about 1.0 mg/mL, which was then tested for chemical stability by HPLC analysis using Agilent HPLC 1260 series. The solid samples after being placed for 2 weeks and 30 days were tested for physical stability by XRPD analysis.

[5] = Solubility in biologically relevant media at 37° C. (free base crystal form I, crystal form III of maleate); type: physicochemical; conditions: for pH 24 h: filtrate
Description: as §1
15 mg of each sample was weighed and dispersed in 3.0 mL of biologically relevant medium. The dispersion was shaken on a shaker at a rotation speed of 800 rpm at 37° C. 1 mL of the dispersion was taken at 0.5 h, 2 h, and 24 h, and filtered. The filtrate was tested for solubility by Agilent HPLC 1260 series and for pH value by a pH meter. The filter cake was characterized for the crystal form by XRPD.

[6] = Pharmacokinetic study in rats; type: in vivo, SD rats
Description: Compound I, 2-hydroxyethanesulfonate of compound I, ethanesulfonate (crystal form I) of compound I, tartrate of compound I, and sulfate of compound I were each accurately weighed, and the required volume of vehicle was added. The mixture was stirred for 5 min, then sonicated below 25° C. until no large particles were visible to the naked eye, and further stirred for 30 min until a homogeneous suspension was obtained. The suspension was then used for administration.
Male SPF-grade SD rats (Beijing Vital River Laboratory Animal Technology Co., Ltd.) were given compound I, the 2-hydroxyethanesulfonate of compound I, the ethanesulfonate of compound I (crystal form I), the tartrate of compound I, and the sulfate of compound I by single intragastric administration after an acclimation period (with free access to water and food). Blood was collected from the orbital venous plexus of the rats at 0.167 h, 0.5 h, 1 h, 2 h, 3 h, 4 h, 6 h, 9 h, 12 h, and 24 h after administration. Each blood sample was centrifuged at 3500×g for 10 min at 4° C. The supernatant was then collected, and the concentration of compound I in the plasma was measured by LC-MS/MS (AB Sciex TRIPLE QUAD 3500). The data were analyzed using a non-compartmental model in WinNonlin (version 5.2.1 Pharsight, Mountain View, CA) to obtain PK parameters.

[7] = filter cake after 24 h in FaSSIF
[8] = filter cake after 24 h in FeSSIF
[9] = 60° C./sealed, 60° C./sealed/N2, 40° C./75% RH (open), RT/sealed for 2 weeks
[10] = simulated gastric fluid, thermodynamic from solid, SGF, 37° C.
[11] = male SD rats, single intragastric administration, 10 mg/kg (calculated as compound I), 10 mL/kg, suspension in 0.5% CMC-Na aqueous solution, plasma concentration of compound I

stability in chemical properties [1] | Purity (%), 230 nm, Day 13 [1] | Purity (%), 230 nm, Day 0 [1] | XRPD spectra before and after the DVS test [2] | weight gain (DVS) ([2]; 0.0% RH to 80% RH) | hygroscopicity [2] | Purity (%), 230 nm, 40° C./75% RH (open) Week 2 ([4]; 40° C./75% RH (open)) | Purity (%), 230 nm, 60° C./sealed Week 2 ([4]; 60° C./sealed) | Purity (%), 230 nm, Day 0 [4] | weight gain (DVS) ([2]; 0.0% RH to 90% RH) | XRPD (24 h) [5, 7] | XRPD (24 h) [5, 8] | XRPD (24 h) ([5]; filter cake after 24 h in SGF) | pH 24 h ([5]; FaSSIF) | pH 24 h ([5]; FeSSIF) | pH 24 h ([5]; SGF) | Purity (%), 230 nm, 40° C./75% RH (open) Week 1 ([4]; 40° C./75% RH (open)) | stability in physical and chemical properties [4, 9] | Purity (%), 230 nm, 60° C./sealed Week 1 ([4]; 60° C./sealed) | Purity (%), 230 nm, 60° C./sealed/N2 Week 1 [4] | Structure (SMILES) | further results
substantially stable | 98.7% | 98.76% | – | – | – | – | – | – | – | – | – | – | – | – | – | – | – | – | – | Cn1c(C(=O)N2CC(F)(F)C2)cc2c1CN(c1ncc(F)c(Nc3ccc(-c4cn[nH]c4)cc3)n1)CC2.O=S(=O)(O)CCO | –
substantially stable | 98.69% | 98.68% | crystal form remained unchanged | about 0.3% | slightly hygroscopic | 99.49% | 99.50% | 99.48% | – | – | – | – | – | – | – | – | – | – | – | CCS(=O)(=O)O.Cn1c(C(=O)N2CC(F)(F)C2)cc2c1CN(c1ncc(F)c(Nc3ccc(-c4cn[nH]c4)cc3)n1)CC2 [Crystal form I of ethanesulfonate] | solubility in SGF in the first 4 h [3]: around 100 μg/mL; stability in physical and chemical properties ([4]; 40° C./75% RH (open) and 60° C./sealed): substantially stable; Purity (%), 230 nm, 40° C./75% RH (open) Day 30 ([4]; 40° C./75% RH (open), Day 30): 99.48%; Purity (%), 230 nm, 60° C./sealed Day 30 ([4]; 60° C./sealed, Day 30): 99.49%
– | – | – | crystal form remained unchanged | 0.29% | slightly hygroscopic | 97.92% | 97.85% | 98.11% | 0.37% | underwent a crystal form transformation | underwent a crystal form transformation | underwent a crystal form transformation | 5.33 | 4.90 | 1.29 | 98.00% | slight degradation | 97.96% | 97.95% | Cn1c(C(=O)N2CC(F)(F)C2)cc2c1CN(c1ncc(F)c(Nc3ccc(-c4cn[nH]c4)cc3)n1)CC2.O=C(O)/C=C\C(=O)O [Crystal form III of maleate] | Solubility 0.5 h ([5]; FaSSIF, 37° C.): 0.14 µg/mL; Solubility 24 h ([5]; FaSSIF, 37° C.): 1.11 µg/mL; Solubility 0.5 h ([5]; FeSSIF, 37° C.): 0.74 µg/mL; Solubility 2 h ([5]; FeSSIF, 37° C.): 2.47 µg/mL; Solubility 24 h ([5]; FeSSIF, 37° C.): 3.90 µg/mL; Solubility 2 h ([5]; SGF, 37° C.): 2.18 µg/mL; Solubility 24 h ([5]; SGF, 37° C.): 6.45 µg/mL; Purity (%), 230 nm, 60° C./sealed/N2 Week 2 [4]: 97.97%; Purity (%), 230 nm, RT/sealed Week 2 [4]: 98.02%
– | – | – | crystal form remained unchanged | 0.30% | slightly hygroscopic | 97.88% | 97.85% | 97.90% | 0.46% | remained unchanged | remained unchanged | underwent a crystal form transformation | 6.53 | 5.02 | 1.30 | 97.82% | substantially stable | 97.82% | 97.83% | Cn1c(C(=O)N2CC(F)(F)C2)cc2c1CN(c1ncc(F)c(Nc3ccc(-c4cn[nH]c4)cc3)n1)CC2 [Free base crystal form I] | solubility ([5]; fassgf or other biorelevant, thermodynamic from solid, SGF, FaSSIF and FeSSIF, 37° C., read-out: solubility in the three biologically relevant media): < 50 µg/mL; solubility at 24 h ([5]; pH 1.3, simulated gastric fluid, thermodynamic from solid, SGF, 37° C.): 8.57 µg/mL (≈ 16.9 µM); solubility at 24 h ([5]; pH 5.02, thermodynamic from solid, FeSSIF, 37° C.): 3.35 µg/mL (≈ 6.59 µM); solubility at 24 h ([5]; pH 6.53, thermodynamic from solid, FaSSIF, 37° C.): 0.39 µg/mL (≈ 0.767 µM); solubility at 0.5 h [5, 10]: 11.5 µg/mL (≈ 22.6 µM); solubility at 2 h [5, 10]: 6.69 µg/mL (≈ 13.2 µM); solubility at 0.5 h ([5]; thermodynamic from solid, FaSSIF, 37° C.): 0.29 µg/mL (≈ 0.57 µM); solubility at 2 h ([5]; thermodynamic from solid, FeSSIF, 37° C.): 1.79 µg/mL (≈ 3.52 µM); Purity (%), 230 nm, 60° C./sealed/N2 Week 2 [4]: 97.84%; Purity (%), 230 nm, RT/sealed Week 2 [4]: 97.93%
– | – | – | – | – | – | – | – | – | – | – | – | – | – | – | – | – | – | – | – | O=S(=O)(O)CCO [Sample 2-Hydroxyethanesulfonate, 2-Hydroxyethanesulfonate] | AUClast [6, 11]: 9449 ng·h/mL; Cmax [6, 11]: 827 ng/mL
– | – | – | – | – | – | – | – | – | – | – | – | – | – | – | – | – | – | – | – | O=S(=O)(O)O [Sulfate] | AUClast ([6]; rat, in vivo, po, 10 mg/kg): 13429 ng·h/mL
